ChEMBL document CHEMBL2074263, “P-glycoprotein efflux at the blood-brain barrier mediates differences in brain disposition and pharmacodynamics between two structurally related neurokinin-1 receptor antagonists” (J Pharmacol Exp Ther, 2001)

Biological target: P-glycoprotein 1 and 3 (MDR1a/MDR1b) (Mus musculus, UniProt P21447+P06795)
Experiment: TP_TRANSPORTER: increase in brain concentration in mdr1a/1b(-/-) mouse
Format: functional, organism-based
Details: in vivo

COc1ccc(N(C)S(C)(=O)=O)cc1CN[C@H]1CCCN[C@H]1c1ccccc1
Activity: substrate [+]
